Experimental findings from ChEMBL document CHEMBL3046841, “The synthesis and screening of the antimicrobial activity of some novel 3-(furan-2-yl)-1-(aryl)-3-(phenylthio) propan-1-one derivatives” (2011) are described below.

In brackets after ≈: the same amount, converted by molar mass. Bounds are passed on as bounds.

Holding throughout (assay type): functional
Test [1] concerns Pseudomonas aeruginosa. Put plainly: Antimicrobial activity against Pseudomonas aeruginosa ATCC 27859 after 24 hr by serial microdilution method. As to conditions: ATCC 27859, 24 h. In general terms: In broth dilution the organism is exposed to a series of concentrations in liquid medium.
Test [2] deals with Streptococcus pyogenes. Nature of the test: Antimicrobial activity against Streptococcus pyogenes ATCC 176 after 24 hr by serial microdilution method. The conditions noted are these: ATCC 176, 24 h.
Test [3] has as its system Streptococcus pyogenes. Put plainly: Antimicrobial activity against Streptococcus pyogenes ATCC 176 at 105 ug/disc after 24 hr by disc diffusion method. As to conditions: ATCC 176, 24 h, read-out: IZ. In general terms: A growth-free zone around the sample is the usual read-out of agar diffusion tests.
The test system of test [4] is Proteus vulgaris. Put plainly: Antimicrobial activity against Proteus vulgaris KUEN 1329 after 24 hr by serial microdilution method. As to conditions: KUEN 1329, 24 h.
For test [5], the system named is Escherichia coli. Nature of the test: Antimicrobial activity against Escherichia coli 111 at 105 ug/disk after 24 hr by disk diffusion method. As to conditions: Escherichia coli, 111, 24 h; read-out: IZ.
The subject of test [6] is Proteus vulgaris. Nature of the test: Antimicrobial activity against Proteus vulgaris KUEN 1329 at 105 ug/disk after 24 hr by disk diffusion method. The conditions noted are these: KUEN 1329, 24 h, read-out: IZ.
For test [7], the system named is Candida albicans. Nature of the test: Antimicrobial activity against Candida albicans ATCC 1213 at 105 ug/disk after 48 hr by disk diffusion method. The conditions noted are these: ATCC 1213, 48 h, read-out: IZ.
For test [8], the system named is Escherichia coli. Nature of the test: Antimicrobial activity against Escherichia coli 111 after 24 hr by serial microdilution method. As to conditions: Escherichia coli, 111, 24 h.
Test [9] has as its system Candida albicans. Nature of the test: Antimicrobial activity against Candida albicans ATCC 1213 by serial microdilution method.
For test [10], the system named is Cyberlindnera jadinii. Put plainly: Antimicrobial activity against Cyberlindnera jadinii KUEN 1031 at 105 ug/disc after 48 hr by disk diffusion method. As to conditions: Williopsis jadinii, KUEN 1031, 48 h; read-out: IZ.
The test system of test [11] is Bacillus cereus. Nature of the test: Antimicrobial activity against Bacillus cereus DSM 4312 at 105 ug/disk after 24 hr by disk diffusion method. The conditions noted are these: DSM 4312, 24 h, read-out: IZ.
The subject of test [12] is Staphylococcus aureus. Nature of the test: Antimicrobial activity against Staphylococcus aureus ATCC 29213 after 24 hr by serial microdilution method. The conditions noted are these: ATCC 29213, 24 h.
For test [13], the system named is Salmonella enteritidis. Put plainly: Antimicrobial activity against Salmonella enterica subsp. enterica serovar Enteritidis ATCC 13076 after 24 hr by serial microdilution method. The conditions noted are these: ATCC 13076, 24 h.
Test [14] deals with Pseudomonas aeruginosa. Put plainly: Antimicrobial activity against Pseudomonas aeruginosa ATCC 27859 at 105 ug/disk after 24 hr by disk diffusion method. As to conditions: ATCC 27859, 24 h, read-out: IZ.
Test [15] concerns Pseudomonas aeruginosa. Nature of the test: Antimicrobial activity against Pseudomonas aeruginosa ATCC 9027 after 24 hr by serial microdilution method. The conditions noted are these: ATCC 9027, 24 h.
For test [16], the system named is Staphylococcus aureus. Put plainly: Antimicrobial activity against Staphylococcus aureus ATCC 29213 at 105 ug/disc after 24 hr by disk diffusion method. As to conditions: ATCC 29213, 24 h, read-out: IZ.
The test system of test [17] is Cyberlindnera jadinii. Put plainly: Antimicrobial activity against Cyberlindnera jadinii KUEN 1031 serial microdilution method. As to conditions: Williopsis jadinii.
Test [18] relates to Salmonella enteritidis. Put plainly: Antimicrobial activity against Salmonella enterica subsp. enterica serovar Enteritidis ATCC 13076 at 105 ug/disk after 24 hr by disk diffusion method. As to conditions: ATCC 13076, 24 h, read-out: IZ.
The subject of test [19] is Bacillus cereus. Put plainly: Antimicrobial activity against Bacillus cereus DSM 4312 after 24 hr by serial microdilution method. The conditions noted are these: DSM 4312, 24 h.
Test [20] concerns Bacillus subtilis. Put plainly: Antimicrobial activity against Bacillus subtilis ATCC 6633 after 24 hr by serial microdilution method. The conditions noted are these: ATCC 6633, 24 h.
For test [21], the system named is Pseudomonas aeruginosa. Put plainly: Antimicrobial activity against Pseudomonas aeruginosa ATCC 9027 at 105 ug/disk after 24 hr by disk diffusion method. As to conditions: ATCC 9027, 24 h, read-out: IZ.
Test [22] has as its system Bacillus subtilis. Put plainly: Antimicrobial activity against Bacillus subtilis ATCC 6633 at 105 ug/disk after 24 hr by disk diffusion method. The conditions noted are these: ATCC 6633, 24 h, read-out: IZ.

Broadly, the MIC is the lowest concentration that inhibits growth of the organism. Low values mean greater potency, high ones weaker potency. Take `COc1ccccc1C(=O)CC(Sc1ccccc1)c1ccco1` (stereo unspecified): the minimum inhibitory concentration (MIC) in the test with Pseudomonas aeruginosa [1] was found to be 62.5 µg/mL (≈ 185 µM); against Streptococcus pyogenes [2], 31.2 µg/mL (≈ 92.3 µM); in the test with Proteus vulgaris [4], 31.2 µg/mL (≈ 92.3 µM); in the test with Escherichia coli [8], 62.5 µg/mL (≈ 185 µM); in the test on Candida albicans [9], 125 µg/mL (≈ 369 µM); in the test on Staphylococcus aureus [12], 7.81 µg/mL (≈ 23.1 µM). Also, the MIC amounted to 15.6 µg/mL (≈ 46.2 µM) in the test with Salmonella enteritidis [13]; 31.2 µg/mL (≈ 92.3 µM) with Pseudomonas aeruginosa [15]; 125 µg/mL (≈ 369 µM) in the test on Cyberlindnera jadinii [17]; 31.2 µg/mL (≈ 92.3 µM) against Bacillus cereus [19]; 31.2 µg/mL (≈ 92.3 µM) against Bacillus subtilis [20]. Moreover, the zone of inhibition at 105 µg/disc with Streptococcus pyogenes [3] amounted to 15 mm; in the test on Escherichia coli [5], 13 mm; in the test with Proteus vulgaris [6], 15 mm; in the test with Candida albicans [7], 17 mm; in the test on Cyberlindnera jadinii [10], 14 mm; with Bacillus cereus [11], 10 mm. Further, the zone of inhibition at 105 µg/disc in the test on Pseudomonas aeruginosa [14] turned out to be 15 mm; with Staphylococcus aureus [16], 17 mm; in the test with Salmonella enteritidis [18] it was 18 mm; in the test with Pseudomonas aeruginosa [21] it was 15 mm; with Bacillus subtilis [22] it was 14 mm.
Consider `O=C(CC(Sc1ccccc1)c1ccco1)c1cccc(Cl)c1` (stereo unspecified), for which the MIC in the test with Pseudomonas aeruginosa [1] was 62.5 µg/mL (≈ 182 µM); against Streptococcus pyogenes [2] it was 31.2 µg/mL (≈ 91.1 µM); with Proteus vulgaris [4], 31.2 µg/mL (≈ 91.1 µM); against Escherichia coli [8], more than 125 µg/mL; in the test with Candida albicans [9] it was 15.6 µg/mL (≈ 45.6 µM); against Staphylococcus aureus [12], 31.2 µg/mL (≈ 91.1 µM). In addition, the MIC against Salmonella enteritidis [13] came to 15.6 µg/mL (≈ 45.6 µM); against Pseudomonas aeruginosa [15], 15.6 µg/mL (≈ 45.6 µM); against Cyberlindnera jadinii [17], 15.6 µg/mL (≈ 45.6 µM); against Bacillus cereus [19], 31.2 µg/mL (≈ 91.1 µM); against Bacillus subtilis [20], 31.2 µg/mL (≈ 91.1 µM). Also, the zone of inhibition at 105 µg/disc in the test with Streptococcus pyogenes [3] was found to be 14 mm; in the test with Proteus vulgaris [6] it was 17 mm; with Candida albicans [7], 17 mm; in the test with Cyberlindnera jadinii [10], 15 mm; in the test with Bacillus cereus [11] it was 11 mm; in the test on Pseudomonas aeruginosa [14], 16 mm. The zone of inhibition at 105 µg/disc in the test with Staphylococcus aureus [16] was determined as 16 mm; in the test with Salmonella enteritidis [18], 19 mm; in the test with Pseudomonas aeruginosa [21], 15 mm; in the test with Bacillus subtilis [22] it was 14 mm.
As to `O=C(CC(Sc1ccccc1)c1ccco1)c1ccccc1Br` (stereo unspecified), the minimum inhibitory concentration (MIC) was 31.2 µg/mL (≈ 80.7 µM) against Pseudomonas aeruginosa [1]; more than 125 µg/mL in the test with Streptococcus pyogenes [2]; 62.5 µg/mL (≈ 161 µM) in the test with Proteus vulgaris [4]; 62.5 µg/mL (≈ 161 µM) in the test with Escherichia coli [8]; more than 125 µg/mL against Candida albicans [9]; 7.81 µg/mL (≈ 20.2 µM) against Staphylococcus aureus [12]. The MIC against Salmonella enteritidis [13] was more than 125 µg/mL; against Pseudomonas aeruginosa [15], more than 125 µg/mL; against Cyberlindnera jadinii [17], more than 125 µg/mL; in the test on Bacillus cereus [19], 31.2 µg/mL (≈ 80.7 µM); against Bacillus subtilis [20], 31.2 µg/mL (≈ 80.7 µM). Further, the zone of inhibition at 105 µg/disc is 13 mm in the test on Streptococcus pyogenes [3]; 10 mm in the test with Escherichia coli [5]; 16 mm in the test with Proteus vulgaris [6]; 17 mm in the test on Candida albicans [7]; 15 mm with Cyberlindnera jadinii [10]; 12 mm in the test on Bacillus cereus [11]. The zone of inhibition at 105 µg/disc in the test with Pseudomonas aeruginosa [14] turned out to be 16 mm; with Staphylococcus aureus [16] it was 17 mm; in the test with Salmonella enteritidis [18], 15 mm; in the test with Pseudomonas aeruginosa [21], 15 mm; with Bacillus subtilis [22], 15 mm.
Consider `O=C(CC(Sc1ccccc1)c1ccco1)c1ccccc1O` (stereo unspecified), for which the MIC against Pseudomonas aeruginosa [1] amounted to 125 µg/mL (≈ 385 µM); against Streptococcus pyogenes [2], 3.9 µg/mL (≈ 12 µM); with Proteus vulgaris [4] it was 7.81 µg/mL (≈ 24.1 µM); with Escherichia coli [8] it was 15.6 µg/mL (≈ 48.2 µM); against Candida albicans [9] it was 125 µg/mL (≈ 385 µM); against Staphylococcus aureus [12], 15.6 µg/mL (≈ 48.2 µM). For the same compound, the MIC in the test on Salmonella enteritidis [13] is 31.2 µg/mL (≈ 96.3 µM); against Pseudomonas aeruginosa [15], more than 125 µg/mL; against Cyberlindnera jadinii [17] it was 7.81 µg/mL (≈ 24.1 µM); in the test on Bacillus cereus [19] it was 15.6 µg/mL (≈ 48.2 µM); against Bacillus subtilis [20], 15.6 µg/mL (≈ 48.2 µM). Moreover, the zone of inhibition at 105 µg/disc in the test on Streptococcus pyogenes [3] worked out at 17 mm; in the test with Proteus vulgaris [6], 18 mm; in the test on Candida albicans [7], 21 mm; in the test on Cyberlindnera jadinii [10], 15 mm; in the test with Bacillus cereus [11] it was 15 mm; with Pseudomonas aeruginosa [14], 17 mm. Also, the zone of inhibition at 105 µg/disc in the test on Staphylococcus aureus [16] turned out to be 16 mm; in the test on Salmonella enteritidis [18], 19 mm; with Pseudomonas aeruginosa [21], 14 mm; in the test with Bacillus subtilis [22], 17 mm.
